US20090232735A1, “USE OF FRUCTOSE-BASED THERAPIES FOR THE TREATMENT OF CANCER” (CEDARS-SINAI MEDICAL CENTER, priority 2005, published 2009)

Experiments:
Type in all cases: cell-based, human
[1] = system: AP1 activation in MCF-7 breast cancer cells; assay: ELISA-based transbinding AP1 assay in breast cancer cells; conditions: 5.5 mM sugar
Method: FIG. 12 depicts an increase in AP1 activation in fructose-treated cells in accordance with an embodiment of the present invention. MCF-7 breast cancer cells were incubated in 2 mM glucose, or 5 mM glucose or fructose for 24 h, after which nuclear extracts were incubated with a biotinylated AP-1 probe in binding buffer. AP-1/AP1 probe complexes were next conjugated to a streptavidin-coated assay plate and detected using an AP-1 specific antibody, followed by binding of a horseradish-peroxidase conjugated secondary antibody, and detection by a colorimetric reagent. *, p<0.001.
Although several signal transduction pathways are likely involved in the fructose-mediated enhanced breast cancer growth and while not wishing to be bound by any particular theory, the inventors believe that the MAP-kinase pathway is involved. The inventors have used Western blot analysis to examine the MAPK pathway in breast cancer cells incubated in 2 mM glucose, 5.5 mM glucose, and 5.5 mM fructose for 48 hours. […] Activation of MEK, and subsequently ERK results in phosphorylation of p90^Rsk, which leads to transcriptional activation of CREB and AP1, which bind to cAMP or AP1 response elements respectively, activating gene transcription and promoting cellular growth.

[2] = system: MAPK pathway (pERK, pRSK, pMEK); assay: Western blot of MAPK pathway in PANC-1 cells; conditions: PANC-1, 5.5 mM sugar, 48 h
Method: FIG. 23 depicts Western blot analysis examining MAPK pathway expression in accordance with an embodiment of the present invention. PANC-1 pancreatic cancer cells were incubated in 2 mM glucose, 5.5 mM glucose or 5.5 mM fructose for 48 hours, after which Western blot analysis on total protein lysates was employed to examine phosphorylated MEK (pMEK), pRSK, and pCREB, and corresponding total MEK, RSK, and CREB levels.
Several signal transduction pathways may be involved in fructose-mediated pancreatic cancer growth but given the importance of the MAPK pathway in proliferation, the inventors believed that MAPK was involved. In the MAPK pathway, MEK mediated phosphorylation of the p44/42 MAP kinase (ERK) is the first step in this cascade, which results in phosphorylation of p90^Rsk, leading to transcriptional activation of CREB, and AP1, activating gene transcription and promoting cellular growth. The inventors employed Western blot analysis to examine MAPK pathway expression in pancreatic cancer cells incubated in 2 mM glucose, 5.5 mM glucose, and 5.5 mM fructose for 48 hours. Levels of the active phosphorylated proteins, pERK, pRSK, and pMEK were normalized to total ERK, RSK, and MEK levels respectively, and compared between the fructose-, and glucose-treated PANC-1 cells.

[3] = system: AP-1 activation in a primary culture of a pancreatic tumor; assay: AP-1 probe binding assay, primary pancreatic tumor culture; conditions: 5.5 mM sugar
Method: FIG. 24 depicts luciferase activity of PANC-1 cells and primary culture of surgically resected pancreatic tumor cells in accordance with an embodiment of the present invention. PANC-1 pancreatic cancer cells and a primary culture of a surgically resected pancreatic tumor were incubated in 2 mM glucose, 5.5 mM glucose or 5.5 mM fructose for 48 h, after which nuclear extracts were incubated with a biotinylated AP-1 probe, and detected by an antibody-linked colorimetric method. *, p<0.01
In separate experiments PANC-1 cells, and primary cultures of surgically resected pancreatic tumors were incubated in 2 mM glucose, or 5.5 mM glucose or 5.5 mM fructose for 48 h, after which nuclear extracts were incubated with a biotinylated AP-1 probe in binding buffer. AP-1/AP1 probe complexes were next conjugated to a streptavidin-coated assay plate and detected using an AP-1 specific antibody, followed by binding of a horseradish-peroxidase conjugated secondary antibody, and detection by a colorimetric reagent.

For O=C(CO)[C@@H](O)[C@H](O)[C@H](O)CO [fructose], the “increase in AP1 activation” value [1] was 3 fold, the “pERK, pRSK, and pMEK expression” value [2] was “highest pERK, pRSK, and pMEK expression” and the “increase in AP-1 activation compared to 2 mM glucose” value [3] was 2.1 fold.
